Our source for the IC50 values is patent US10710994B2, “Oxadiazole transient receptor potential channel inhibitors” (Genentech, Inc., priority 2018, dated 2020).

This test concerns the target human TRPA1 channel (Homo sapiens (Human), UniProt O75762). The test is described as follows: hTRPA1 CHO Ca2+ FLIPR Tetra assay: block of cinnamaldehyde induced calcium influx. To be noted: CHO cells expressing TRPA1, Hill coefficient fixed to 1.5. The class given is cell-based. As to the method: CHO cells expressing TRPA1 were plated into 384-well plates, incubated overnight at 37° C., and loaded with BD calcium indicator dye for 1 hr at 37° C. followed by 15 minutes at room temperature. The assay buffer was Hank's Balanced Salt Solution (HBSS) containing 20 mM HEPES (pH readjusted to 7.4) along with 0.02% BSA.
Following dye load and plate cool down, compounds were added to the cells using FLIPR Tetra. Plates were then incubated with compounds for 10 minutes or 90 minutes at room temperature prior to adding agonist. Following this incubation, about an EC80 concentration of cinnamaldehyde […] was added to active the channels and block of cinnamaldehyde induced calcium influx was measured.
Fixing the Hill coefficient will generally reduce variability of the IC50 determination. The IC50 results were individually examined to make sure the MIN and MAX points were set correctly prior to validation of the results.

Setting [1] is: hTRPA1 IC50 10 min, 10 minutes incubation with compound before cinnamaldehyde (about EC80).
The mark [2] stands for this setting: hTRPA1 IC50 90 min, 90 minutes incubation with compound before cinnamaldehyde (about EC80).

human TRPA1 channel, sequence (O75762 whole entry): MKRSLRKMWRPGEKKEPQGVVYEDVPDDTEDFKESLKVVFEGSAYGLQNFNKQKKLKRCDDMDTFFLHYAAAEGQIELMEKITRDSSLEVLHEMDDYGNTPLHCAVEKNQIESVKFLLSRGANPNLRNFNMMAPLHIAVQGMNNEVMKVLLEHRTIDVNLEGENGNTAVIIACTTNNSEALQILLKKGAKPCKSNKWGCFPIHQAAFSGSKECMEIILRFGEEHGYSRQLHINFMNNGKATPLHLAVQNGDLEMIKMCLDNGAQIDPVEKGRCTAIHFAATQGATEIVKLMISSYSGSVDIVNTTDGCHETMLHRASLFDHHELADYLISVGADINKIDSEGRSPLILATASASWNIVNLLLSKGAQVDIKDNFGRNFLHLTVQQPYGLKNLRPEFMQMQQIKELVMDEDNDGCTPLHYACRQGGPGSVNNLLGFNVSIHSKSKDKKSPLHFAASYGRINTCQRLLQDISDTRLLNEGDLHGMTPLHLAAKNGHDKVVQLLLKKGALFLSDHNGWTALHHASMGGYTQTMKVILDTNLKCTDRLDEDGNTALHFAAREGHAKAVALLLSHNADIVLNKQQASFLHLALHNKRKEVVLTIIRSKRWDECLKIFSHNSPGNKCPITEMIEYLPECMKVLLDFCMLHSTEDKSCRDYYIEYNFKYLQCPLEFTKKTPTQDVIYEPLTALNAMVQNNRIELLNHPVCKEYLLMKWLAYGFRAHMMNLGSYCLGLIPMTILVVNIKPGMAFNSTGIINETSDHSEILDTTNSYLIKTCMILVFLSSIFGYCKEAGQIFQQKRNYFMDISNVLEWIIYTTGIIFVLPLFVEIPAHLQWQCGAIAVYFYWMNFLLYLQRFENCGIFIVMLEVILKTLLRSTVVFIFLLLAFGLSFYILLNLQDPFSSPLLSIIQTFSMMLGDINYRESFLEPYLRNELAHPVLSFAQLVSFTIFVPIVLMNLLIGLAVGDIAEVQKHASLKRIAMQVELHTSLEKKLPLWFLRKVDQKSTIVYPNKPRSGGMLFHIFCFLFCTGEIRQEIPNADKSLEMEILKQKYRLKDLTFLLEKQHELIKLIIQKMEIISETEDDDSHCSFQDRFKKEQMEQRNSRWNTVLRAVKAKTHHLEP

As usually defined, the IC50 is the midpoint of a concentration-inhibition curve. As to `Cc1cnn2ncn(Cc3nc([C@@H]4CO[C@@H](c5ccc(Cl)cn5)C4)no3)c(=O)c12` (racemic) [Example 72, Racemic 3-((3-((3R,5R)-5-(5-chloropyridin-2-yl)tetrahydrofuran-3-yl)-1,2,4-oxadiazol-5-yl)methyl)-5-methylpyrazolo[5,1-f] [1,2,4]triazin-4(3H)-one], the IC50 came to 219 nM under setting [1] and 150 nM under setting [2]. For `Cc1nc(Br)n2ncn(Cc3nc([C@@H]4CO[C@@H](c5ccc(F)cc5)C4)no3)c(=O)c12` (racemic) [Example 90, 7-bromo-5-methyl-3-[[3-[rac-(3R,5R)-5-(4-fluorophenyl)tetrahydro-furan-3-yl]-1,2,4-oxadiazol-5-yl]methyl] imidazo[5,1-f][1,2,4] triazin-4-one], under setting [2], the half-maximal inhibitory concentration (IC50) was 33 nM.

With `Cc1nc(N2CCNCC2)n2ncn(Cc3nc([C@@H]4CO[C@@H](c5ccc(Cl)cc5)C4)no3)c(=O)c12` (racemic) [Example 91, formic acid; 5-methyl-7-piperazin-1-yl-3-[[3-[rac-(3R,5R)-5-(4-chlorophenyl)tetrahydro-furan-3-yl]-1,2,4-oxadiazol-5-yl]methyl] imidazo[5,1-f][1,2,4]triazin-4-one], the half-inhibitory concentration (IC50) under setting [2] came to 330 nM.

As to `Cc1nc(N2CCN(C)CC2)n2ncn(Cc3nc([C@@H]4CO[C@@H](c5ccc(Cl)cc5)C4)no3)c(=O)c12` (racemic) [Example 92, 5-methyl-7-(4-methylpiperazin-1-yl)-3-[[3-[rac-(3R,5R)-5-(4-chlorophenyl)tetrahydro-furan-3-yl]-1,2,4-oxadiazol-5-yl]methyl]imidazo[5,1-f][1,2,4]triazin-4-one], the half-inhibitory concentration (IC50) under setting [2] came out at 170 nM. Same read-out and setting: with `Cc1nc(Cl)n2ncn(Cc3nc([C@@H]4CO[C@@H](c5ccc(Cl)cc5)C4)no3)c(=O)c12` (racemic) [Example 93, 7-chloro-5-methyl-3-[[3-[rac-(3R,5R)-5-(4-chlorophenyl)tetrahydro-furan-3-yl]-1,2,4-oxadiazol-5-yl]methyl] imidazo[5,1-f][1,2,4] triazin-4-one] the figure was 13 nM; with `O=c1c2cccc(=O)n2ccn1Cc1nc([C@@H]2CO[C@@H](c3ccc(F)cc3)C2)no1` (racemic) [Example 94, 2-[[3-[rac-(3R,5R)-5-(4-fluorophenyl)tetrahydro-furan-3-yl]-1,2,4-oxadiazol-5-yl]methyl]pyrido[1,2-a] pyrazine-1,6-dione], 12 nM; with `O=c1c2c(Cl)ccnc2ncn1Cc1nc([C@@H]2CO[C@@H](c3ccc(F)cc3)C2)no1` (racemic) [Example 95, 5-chloro-3-[[3-[rac-(3R,5R)-5-(4-fluorophenyl)tetrahydrofuran-3-yl]-1,2,4-oxadiazol-5-yl]methyl] pyrido[2,3-d]pyrimidin-4-one], 15 nM. As for `Cc1nn(C)c2ncn(Cc3nc([C@@H]4CO[C@@H](c5ccc(Cl)cc5)C4)no3)c(=O)c12` (racemic) [Example 96, 1,3-dimethyl-5-[[3-[rac-(3R,5R)-5-(4-chlorophenyl)tetrahydro-furan-3-yl]-1,2,4-oxadiazol-5-yl]methyl] pyrazolo[3,4-d]pyrimidin-4-one], the IC50 under setting [2] is 33 nM. On the same count and under the same terms, to `Cc1nc(C)n2ncn(Cc3nc([C@@H]4CO[C@@H](c5ccc(Cl)cc5)C4)no3)c(=O)c12` (racemic) [Example 97, 5,7-dimethyl-3-[[3-[rac-(3R,5R)-5-(4-chlorophenyl)tetrahydro-furan-3-yl]-1,2,4-oxadiazol-5-yl]methyl] imidazo[5,1-f][1,2,4] triazin-4-one] belongs 45 nM. Turning to `O=c1c2cccc(=O)n2ccn1Cc1nc([C@@H]2CO[C@@H](c3ccc(Cl)cc3)C2)no1` (racemic) [Example 98, 2-[[3-[rac-(3R,5R)-5-(4-chlorophenyl)tetrahydro-furan-3-yl]-1,2,4-oxadiazol-5-yl]methyl] pyrido[1,2-a]pyrazine-1,6-dione], the IC50 came to 6.4 nM under setting [1] and 4 nM under setting [2]. As for `O=c1ccn2c(=O)n(Cc3nc([C@@H]4CO[C@@H](c5ccc(Cl)cc5)C4)no3)ccc2n1` (racemic) [Example 99, 7-[[3-[rac-(3R,5R)-5-(4-chlorophenyl)tetrahydro-furan-3-yl]-1,2,4-oxadiazol-5-yl]methyl]pyrimido[1,6-a]pyrimidine-2,6-dione], the concentration for half-maximal inhibition (IC50) by setting is: under setting [1], 15.4 nM; under setting [2], 7.2 nM. Taken in the same sequence, the figures for `Cc1cccc2nn(Cc3nc([C@@H]4CO[C@@H](c5ccc(Cl)cc5)C4)no3)c(=O)n12` (racemic) [Example 100, 5-methyl-2-[[3-[rac-(3R,5R)-5-(4-chlorophenyl)tetrahydro-furan-3-yl]-1,2,4-oxadiazol-5-yl]methyl]-[1,2,4]triazolo[4,3-a] pyridin-3-one] were 153 nM and 140 nM. Taken in the same sequence, the figures for `Cc1nc(N2CCOCC2)n2ncn(Cc3nc([C@@H]4CO[C@@H](c5ccc(Cl)cc5)C4)no3)c(=O)c12` (racemic) [Example 101, 5-methyl-7-morpholino-3-[[3-[rac-(3R,5R)-5-(4-chlorophenyl)tetrahydro-furan-3-yl]-1,2,4-oxadiazol-5-yl]methyl]imidazo[5,1-f][1,2,4]triazin-4-one] were 123 nM and 96 nM. Taken in the same sequence, the figures for `Cn1cncc1C(=O)NCc1nc([C@H]2CO[C@H](c3ccc(Cl)cc3)C2)no1` (racemic) [Example 102, 3-methyl-N-[[3-[rac-(3S,5S)-5-(4-chlorophenyl)tetrahydro-furan-3-yl]-1,2,4-oxadiazol-5-yl]methyl]imidazole-4-carboxamide] were 38.9 nM and 23 nM. `Cc1nc(N(C)C)n2ncn(Cc3nc([C@@H]4CO[C@@H](c5ccc(Cl)cc5)C4)no3)c(=O)c12` (racemic) [Example 105, 7-(dimethylamino)-5-methyl-3-[[3-[rac-(3R,5R)-5-(4-chlorophenyl)tetrahydro-furan-3-yl]-1,2,4-oxadiazol-5-yl]methyl]imidazo[5,1-f][1,2,4]triazin-4-one]: the IC50 by setting is: under setting [1], 42 nM; under setting [2], 59 nM. The corresponding values for `Cn1nnc2ccn(Cc3nc([C@@H]4CO[C@@H](c5ccc(F)cc5)C4)no3)c(=O)c21` (racemic) [Example 106, 3-methyl-5-[[3-[rac-(3R,5R)-5-(4-fluorophenyl)tetrahydro-furan-3-yl]-1,2,4-oxadiazol-5-yl]methyl] triazolo[4,5-c]pyridin-4-one] are 6.9 nM and 5.6 nM. Taken in the same sequence, the figures for `Cc1nc(Br)n2ncn(Cc3nc([C@@H]4CO[C@@H](c5ccc(Cl)cc5)C4)no3)c(=O)c12` (racemic) [Example 107, 7-bromo-5-methyl-3-[[3-[rac-(3R,5R)-5-(4-chlorophenyl)tetrahydro-furan-3-yl]-1,2,4-oxadiazol-5-yl]methyl] imidazo[5,1-f][1,2,4] triazin-4-one] were 0.8 nM and 0.3 nM. Consider `Nc1nccc2c(=O)n(Cc3nc([C@@H]4CO[C@@H](c5ccc(Cl)cc5)C4)no3)cnc12` (racemic) [Example 108, 8-amino-3-[[3-[rac-(3R,5R)-5-(4-chlorophenyl)tetrahydro-furan-3-yl]-1,2,4-oxadiazol-5-yl]methyl]pyrido[3,4-d] pyrimidin-4-one], for which the 50% inhibitory concentration (IC50) came to 76.9 nM under setting [1] and 57 nM under setting [2]. The corresponding values for `Cc1nc2nc(N)n(C)c2c(=O)n1Cc1nc([C@@H]2CO[C@@H](c3ccc(Cl)cc3)C2)no1` (racemic) [Example 113, 8-amino-2,7-dimethyl-1-[[3-[rac-(3R,5R)-5-(4-chlorophenyl)tetrahydro-furan-3-yl]-1,2,4-oxadiazol-5-yl]methyl] purin-6-one] are 123 nM and 14 nM. Taken in the same sequence, the figures for `Cc1nc2nc(N)n(Cc3nc([C@@H]4CO[C@@H](c5ccc(Cl)cc5)C4)no3)c(=O)c2n1C` (racemic) [Example 152, 2-amino-7,8-dimethyl-1-[[3-[rac-(3R,5R)-5-(4-chlorophenyl)tetrahydro-furan-3-yl]-1,2,4-oxadiazol-5-yl]methyl]purin-6-one] were 43.1 nM and 6.2 nM. Taken in the same sequence, the figures for `Cn1c(=O)oc2ncn(Cc3nc([C@@H]4CO[C@@H](c5ccc(Cl)cc5)C4)no3)c(=O)c21` (racemic) [Example 153, 1-methyl-6-[[3-[rac-(3R,5R)-5-(4-chlorophenyl)tetrahydro-furan-3-yl]-1,2,4-oxadiazol-5-yl]methyl] oxazolo[5,4-d] pyrimidine-2,7-dione] were 6.35 nM and 1.8 nM.

On to `Nc1nc2ncsc2c(=O)n1Cc1nc([C@@H]2CO[C@@H](c3ccc(F)cc3)C2)no1` (racemic) [Example 154, 5-amino-6-[[3-[rac-(3R,5R)-5-(4-fluorophenyl)tetrahydro-furan-3-yl]-1,2,4-oxadiazol-5-yl]methyl]thiazolo[4,5-d]pyrimidin-7-one], for which the IC50 under setting [2] worked out at 2.3 nM. For `Cn1nnc2nc(N)n(Cc3nc([C@@H]4CO[C@@H](c5ccc(Cl)cc5)C4)no3)c(=O)c21` (racemic) [Example 156, 5-amino-1-methyl-6-[[3-[rac-(3R,5R)-5-(4-chlorophenyl)tetrahydro-furan-3-yl]-1,2,4-oxadiazol-5-yl]methyl]triazolo[4,5-d]pyrimidin-7-one], the half-maximal inhibitory concentration (IC50) under setting [1] was 16.1 nM and the IC50 under setting [2] was 2.1 nM.

For `Cn1cnc2nc(N)n(Cc3nc([C@@H]4CO[C@@H](c5ccc(F)cc5)C4)no3)c2c1=O` (racemic) [Example 157, 8-amino-1-methyl-7-[[3-[rac-(3R,5R)-5-(4-fluorophenyl)tetrahydro-furan-3-yl]-1,2,4-oxadiazol-5-yl]methyl]purin-6-one], the IC50 was 470 nM under setting [1] and 87 nM under setting [2].
